Measured values from patent publication US20110230478A1 (Bayer ScienceCrop AG, priority 2008, published 2011).
Read-outs that look alike come from different tables or passages of the source. Values belong to the compound of their own block, whether it stands above or below them.

Experiment: logP by HPLC on reversed-phase columns (C 18), EEC Directive 79/831 Annex V.A8
Format: physicochemical
[1] = reversed-phase HPLC column (C 18), pH 2.3, pH 2.3, 0.1% aqueous phosphoric acid and acetonitrile, read-out: logP [a]
[2] = values marked [b], footnote not given
[3] = method marker [b] (compound 257: pH2.7)
[4] = values marked [c], footnote not given
[5] = method marker [a], footnote not given
[6] = method marker [b], footnote not given, compound 68 value matches logP (pH 2.3)

Structure (SMILES): COCC(C)Nc1nc(Nc2ccc(C(=O)CC#N)cc2)ncc1Br (stereo not drawn) [Example 121]
logP [2]: 2.23[b]

Structure (SMILES): CCC(C)N(C)c1nc(Nc2ccccc2)ncc1Cl (stereo not drawn) [Example 40]
logP [5]: 2.85[a]

Structure (SMILES): Cl.OCCNc1nc(Nc2ccccc2)ncc1Cl [Example 53]
logP [5]: 0.86[a]

Structure (SMILES): COCCNc1nc(Nc2ccc(N3CCN(C(=O)OC(C)(C)C)CC3)cc2)ncc1Cl [Example 7]
logP [5]: 2.05[a];
logP [6]: 2.05[b]

Structure (SMILES): CC(C)Nc1nc(Nc2cccc(C=O)c2)ncc1Cl [Example 252]
logP [3]: 1.86[b]
logP (method marker [c]): 3.06[c];

Structure (SMILES): COCC(C)Nc1nc(Nc2ccc(F)cc2F)ncc1Cl (stereo not drawn) [Example 81]
logP [6]: 2.02[b]

Structure (SMILES): CCCCN(C)c1nc(Cl)ncc1Cl [Example V-28]
chromatographic logP (pH 2.3, 0.1% aqueous phosphoric acid and acetonitrile, read-out: logP [a]): 3.89

Structure (SMILES): CNC(=O)Oc1cccc(Nc2ncc(Br)c(NC(C)COC)n2)c1 (racemic) [Example 130]
logP [2]: 1.56[b]

Structure (SMILES): COCC(C)Nc1nc(Nc2cccc(C#N)c2)ncc1Cl (stereo not drawn) [Example 83]
logP [6]: 2.11[b]

Structure (SMILES): CCCNc1nc(Nc2ccccc2)ncc1C#N [Example 68, 2-(Phenylamino)-4-(propylamino)pyrimidine-5-carbonitrile]
chromatographic logP (reversed-phase HPLC column (C 18), pH 2.3, method marker [b], footnote not given, compound 68 value matches logP (pH 2.3), read-out: logP): 2.68
chromatographic logP [1]: 2.68

Structure (SMILES): CN(C)c1nc(Nc2ccc(S(=O)(=O)N(C)C)cc2)ncc1Cl [Example 27]
logP [5]: 2.49[a]

Structure (SMILES): COCC(C)Nc1nc(Nc2cccc(S(=O)(=O)N3CCOCC3)c2)ncc1Cl (stereo not drawn) [Example 29]
logP [5]: 2.1[a];
logP [6]: 2.04[b]

Structure (SMILES): CCC(C)N(C)c1nc(Nc2cccc(C(C)=O)c2)ncc1Cl.Cl (stereo not drawn) [Example 41]
logP [5]: 2.88[a]

Structure (SMILES): CCOc1cccc(Nc2ncc(Br)c(NC(C)COC)n2)c1 (stereo not drawn) [Example 116]
logP [6]: 2.18[b]

Structure (SMILES): CCCCNc1nc(Nc2ccccc2)ncc1Cl [Example 32]
logP [5]: 2.12[a]

Structure (SMILES): CC(=O)c1cccc(Nc2ncc(Cl)c(NCCO)n2)c1.Cl [Example 56]
logP [5]: 1.06[a]

Structure (SMILES): C=CCNc1nc(Cl)ncc1Cl [Example V-13, 2,5-dichloro-N-(prop-2-en-1-yl)pyrimidine-4-amine]
chromatographic logP (pH 2.3, logP [a]): 2.12

Structure (SMILES): COCC(C)Nc1nc(Nc2ccc3sc(C)nc3c2)ncc1Br (stereo not drawn) [Example 122]
logP [2]: 1.87[b]

Structure (SMILES): COCC(C)Nc1nc(Nc2ccc(SC)c(Cl)c2)ncc1Br (stereo not drawn) [Example 111]
logP [6]: 2.99[b]

Structure (SMILES): C=CCNC(=O)c1ccc(Nc2ncc(Br)c(NC(C)COC)n2)cc1 (racemic) [Example 128]
logP [2]: 1.75[b]

Structure (SMILES): CCOC(=O)Nc1cccc(Nc2ncc(Br)c(NC(C)COC)n2)c1 (racemic) [Example 129]
logP [2]: 1.87[b]

Structure (SMILES): CCC(C)N(C)c1nc(Nc2cccc(S(=O)(=O)N(C)C)c2)ncc1Cl (stereo not drawn) [Example 52]
logP [5]: 3.33[a]

Structure (SMILES): COCCNc1nc(Nc2cc(OC)c(OC)c(OC)c2)ncc1Cl [Example 1]
logP [5]: 1.45[a];
logP [6]: 1.45[b]

Structure (SMILES): COCC(C)Nc1nc(Nc2ccc(-c3cscn3)cc2)ncc1Cl (stereo not drawn) [Example 90]
logP [6]: 1.87[b]

Structure (SMILES): COCC(C)Nc1nc(Nc2ccc3c(c2)OCO3)ncc1Br (stereo not drawn) [Example 117]
logP [6]: 1.64[b]

Structure (SMILES): COCC(C)Nc1nc(Nc2ccc(C(=O)CC#N)cc2)ncc1Cl (stereo not drawn) [Example 102]
logP [6]: 2.09[b]

Structure (SMILES): COCC(C)Nc1nc(Nc2cccc(SC)c2)ncc1Cl (stereo not drawn) [Example 101]
logP [6]: 2.13[b]

Structure (SMILES): CCC(CO)Nc1nc(Nc2ccc(S(=O)(=O)N(C)C)cc2)ncc1Cl (stereo not drawn) [Example 22]
logP [5]: 1.83[a]

Structure (SMILES): COCC(C)Nc1nc(Nc2ccc(SC(F)(F)F)cc2)ncc1Cl (stereo not drawn) [Example 88]
logP [6]: 3.81[b]

Structure (SMILES): COCC(C)Nc1nc(Nc2cc(OC)c(OC)c(OC)c2)ncc1C(F)(F)F (stereo not drawn) [Example 24]
logP [6]: 2.46[b]

Structure (SMILES): COCC(C)Nc1nc(Nc2cccc(Cl)c2)ncc1Br (stereo not drawn) [Example 71]
logP [6]: 2.82[b]

Structure (SMILES): CCC(C)Nc1nc(Nc2ccccc2)ncc1Cl.Cl (stereo not drawn) [Example 65]
logP [5]: 2.04[a]

Second part, the compound after the results:

chromatographic logP [1]: 3.47
Structure (SMILES): CCCC(C)Nc1nc(Cl)ncc1Cl (stereo not drawn) [Example V-27, 2,5-dichloro-N-(pent-2-yl)pyrimidine-4-amine]

logP [2]: 1.32[b]
Structure (SMILES): CC(=O)Nc1ccc(Nc2ncc(Cl)c(NC(C)C)n2)cc1 [Example 189]

logP [3]: 1.32[b]
Structure (SMILES): CNc1cccc(Nc2ncc(Cl)c(NC(C)C)n2)c1 [Example 292]

logP [3]: 2.28[b]
Structure (SMILES): Clc1cnc(Nc2ccccc2)nc1NC1CCCC1 [Example 254]

chromatographic logP [1]: 3.62
Structure (SMILES): CCC(C)N(C)c1nc(Cl)ncc1Cl (stereo not drawn) [Example V-15, N-(butan-2-yl)-2,5-dichloro-N-methylpyrimidine-4-amine]

chromatographic logP [1]: 2.02
chromatographic logP (reversed-phase HPLC column (C 18), pH 2.3, values marked [a], pH 2.3, read-out: logP): 2.02
Structure (SMILES): COCCN(C)c1nc(Nc2ccccc2)ncc1Cl [Example 222, 5-Chloro-N^4-(2-methoxyethyl)-N^4-methyl-N^2-phenylpyrimidine-2,4-diamine]

logP (method marker [a]): 2.77[a]
Structure (SMILES): CC(=O)c1ccc(Nc2ncc(Cl)c(NC3CCCCC3)n2)cc1 [Example 266]

logP [2]: 1.96[b]
logP [4]: 3.18[c];
Structure (SMILES): CCN(C)S(=O)(=O)Cc1cccc(Nc2ncc(Cl)c(NC(C)C)n2)c1 [Example 243]

logP [3]: 2.93[b]
Structure (SMILES): CSc1cccc(Nc2ncc(Cl)c(NC3CCCC3)n2)c1 [Example 256]

logP [2]: 1.68[b]
Structure (SMILES): COCC(C)Nc1nc(Nc2ccc(O)c(C(C)=O)c2)ncc1Cl (stereo not drawn) [Example 159]

logP [2]: 1.99[b]
Structure (SMILES): COCC(C)Nc1nc(Nc2cccc(C(=O)NC(C)(C)C)c2)ncc1Cl (stereo not drawn) [Example 157]

logP [b] (LC-MS, pH 2.7, 0.1% aqueous formic acid and acetonitrile): 1.39[b]
Structure (SMILES): COCC(C)Nc1nc(Nc2ccc(OC)nc2)ncc1Cl (stereo not drawn) [II-2]

chromatographic logP (pH 2.3, logP [a]): 2.68
Structure (SMILES): CCN(C)c1nc(Cl)ncc1Cl [Example V-19, 2,5-dichloro-N-ethyl-N-methylpyrimidine-4-amine]

logP [2]: 1.28[b]
Structure (SMILES): COCC(C)Nc1nc(Nc2ccc(NC=O)cc2)ncc1Cl (racemic) [Example 138]

logP [2]: 1.59[b]
Structure (SMILES): COCC(C)Nc1nc(Nc2cccc(NC(=O)OC)c2)ncc1Cl (stereo not drawn) [Example 153]

chromatographic logP [1]: 3.31
Structure (SMILES): CCCN(C)c1nc(Cl)ncc1Cl [Example V-25, 2,5-dichloro-N-methyl-N-propylpyrimidine-4-amine]

logP [2]: 1.44[b]
Structure (SMILES): CC(C)Nc1nc(Nc2ccc3[nH]c(=O)oc3c2)ncc1Cl [Example 205]

logP [2]: 3.26[b]
Structure (SMILES): CC(C)Nc1nc(Nc2cccc(OC(F)(F)F)c2)ncc1Cl [Example 185]

logP [2]: 1.38[b]
Structure (SMILES): COCC(C)Nc1nc(Nc2ccc(NC(C)=O)c(OC)c2)ncc1Cl (racemic) [Example 140]

chromatographic logP (reversed-phase HPLC column (C 18), pH 2.7, LC-MS, pH 2.7, 0.1% aqueous formic acid and acetonitrile, read-out: logP [b]): 5.08
chromatographic logP (reversed-phase HPLC column (C 18), pH 2.7, method marker [b] (compound 257: pH2.7), read-out: logP): 5.08
Structure (SMILES): CC(C)c1cccc(Nc2ncc(C(F)(F)F)c(NC3CCCC3)n2)c1 [Example 257, N^4-Cyclopentyl-N^2-[3-(propan-2-yl)phenyl]-5-(trifluoromethyl)pyrimidine-2,4-diamine]

logP [2]: 2.91[b]
Structure (SMILES): CSc1ccc(Nc2ncc(Cl)c(NC(C)C)n2)cc1Cl [Example 187]

chromatographic logP (pH 2.3, logP [a]): 3.47
Structure (SMILES): CSCC(C)(C)Nc1nc(Cl)ncc1Cl [Example V-7, 2,5-dichloro-N-[2-methyl-1-(methylsulphanyl)propan-2-yl]pyrimidine-4-amine]

chromatographic logP [1]: 3.44
Structure (SMILES): CC(C)(C)CNc1nc(Cl)ncc1Cl [Example V-32, 2,5-dichloro-N-(2,2-dimethylpropyl)pyrimidine-4-amine]

logP [2]: 2.88[b]
Structure (SMILES): CC(C)Nc1nc(Nc2cccc(OC(F)(F)C(F)F)c2)ncc1Cl [Example 211]

logP [2]: 1.43[b]
Structure (SMILES): COCC(C)Nc1nc(Nc2cccc(NC=O)c2)ncc1Br (racemic) [Example 132]

logP [2]: 1.66[b]
Structure (SMILES): C=C(C)C(=O)Nc1cccc(Nc2ncc(Cl)c(NC(C)C)n2)c1 [Example 196]

logP [2]: 1.39[b]
Structure (SMILES): CC(=O)Nc1cccc(Nc2ncc(Cl)c(NC(C)C)n2)c1 [Example 195]

logP [2]: 2.46[b]
Structure (SMILES): CC(C)Nc1nc(Nc2ccc(C#N)cc2)ncc1Cl [Example 184]

logP [2]: 2.77[b]
Structure (SMILES): COCC(C)Nc1nc(Nc2cccc(S(=O)(=O)N3CCCCC3)c2)ncc1Cl (stereo not drawn) [Example 150]

logP [2]: 1.41[b]
Structure (SMILES): COCC(C)Nc1nc(Nc2ccc(N3C(=O)CN(C)C3=O)cc2)ncc1Cl (stereo not drawn) [Example 227]

logP [3]: 2.04[b]
logP (method marker [c]): 3.64[c];
Structure (SMILES): COC(C)C(C)Nc1nc(Nc2ccccc2)ncc1Cl (stereo not drawn) [Example 295]

logP [3]: 2.41[b]
Structure (SMILES): CCCC(C)Nc1nc(Nc2ccccc2)ncc1Cl (stereo not drawn) [Example 274]

logP [2]: 1.78[b]
Structure (SMILES): CC(C)Nc1nc(Nc2cccc(NC(=O)C3(C)CC3)c2)ncc1Cl [Example 207]

logP [2]: 1.44[b]
Structure (SMILES): COc1cc(Nc2ncc(Cl)c(NC(C)C)n2)ccc1NC(C)=O [Example 181]

logP [2]: 1.24[b]
Structure (SMILES): CC(C)Nc1nc(Nc2ccc(O)cc2)ncc1Cl [Example 213]

logP [3]: 2.02[b]
Structure (SMILES): CC(C)CNc1nc(Nc2ccccc2)ncc1Cl [Example 279]

logP [2]: 1.47[b]
Structure (SMILES): COCC(C)Nc1nc(Nc2cccc(C(=O)N(C)C)c2)ncc1Cl (stereo not drawn) [Example 155]

logP (values marked [a], pH 2.3): 1.62[a];
logP [4]: 2.2[c]
Structure (SMILES): N#CCNc1nc(Nc2ccccc2)ncc1Cl [Example 220]

chromatographic logP [1]: 2.63
Structure (SMILES): CC(NS(=O)(=O)Cc1cccc([N+](=O)[O-])c1)c1ccccc1 (stereo not drawn) [IV-3, N-(1-phenylethyl)-1-(3-nitrophenyl)methanesulphonamide]

logP [2]: 1.78[b]
Structure (SMILES): COCC(C)Nc1nc(Nc2cccc(NC(=O)C3(C)CC3)c2)ncc1Cl (stereo not drawn) [Example 162]

logP (values marked [a], pH 2.3): 3.48[a];
logP [4]: 4.59[c]
Structure (SMILES): CSCC(C)(C)Nc1nc(Nc2cccc(SC)c2)ncc1Cl [Example 175]

chromatographic logP [1]: 2.05
Structure (SMILES): CCN(C)S(=O)(=O)Cc1cccc([N+](=O)[O-])c1 [IV-1, N-Ethyl-N-methyl-1-(3-nitrophenyl)methanesulphonamide]

logP [2]: 1.61[b]
Structure (SMILES): CC(=O)N1CCc2ccc(Nc3ncc(Cl)c(NC(C)C)n3)cc21 [Example 206]

chromatographic logP [1]: 1.65
Structure (SMILES): COCCNc1nc(Cl)ncc1Cl [Example V-3, 2,5-dichloro-N-(2-methoxyethyl)pyrimidine-4-amine]
